What was measured:
[1] = system: PC3; test: MTT chemosensitivity assay, PC3; format: cell-based, human; conditions: ± SD, at least three independent experiments
Experimental: (§1) MTT (3-(4, 5-dimethyl-2-thiazolyl)-2, 5-diphenyl-2H-tetrazolium bromide) assay was used to determine cell viability.[64] Immortalized PCa cells (PC-3, Du-145, and LNCaP) were seeded in 96-well plates and allowed to adhere overnight at 37 °C, 5% CO2, and 100% humidity. […] After 96 h of exposure, 200 μL of MTT (Sigma) solution (0.5 mg/mL) was added to each well and incubated at 37 °C for 4 h. The formazan crystals were dissolved in DMSO (Sigma), and the absorbance was read using a microplate reader (Multiskan EX; Thermo Fisher Scientific) at 540 nm. Data analysis was performed using Microsoft Excel 2013 and GraphPad Prism software.

[2] = system: LNCaP; test: MTT chemosensitivity assay, LNCaP; format: cell-based, human; conditions: 96 h exposure, ± SD, at least three independent experiments
Experimental: as §1

[3] = system: DU145; test: MTT chemosensitivity assay, DU145; format: cell-based, human; conditions: ± SD, at least three independent experiments
Experimental: as §1

[4] = target: T1, Human ALDH1A3 (Homo sapiens, UniProt P47895); test: ALDH1A3 inhibition, IC50, Ki and type of inhibition; format: biochemical; conditions: for IC50: 6 μM hexanal as substrate
T1 construct: made in house
T1 sequence (P47895 1-512): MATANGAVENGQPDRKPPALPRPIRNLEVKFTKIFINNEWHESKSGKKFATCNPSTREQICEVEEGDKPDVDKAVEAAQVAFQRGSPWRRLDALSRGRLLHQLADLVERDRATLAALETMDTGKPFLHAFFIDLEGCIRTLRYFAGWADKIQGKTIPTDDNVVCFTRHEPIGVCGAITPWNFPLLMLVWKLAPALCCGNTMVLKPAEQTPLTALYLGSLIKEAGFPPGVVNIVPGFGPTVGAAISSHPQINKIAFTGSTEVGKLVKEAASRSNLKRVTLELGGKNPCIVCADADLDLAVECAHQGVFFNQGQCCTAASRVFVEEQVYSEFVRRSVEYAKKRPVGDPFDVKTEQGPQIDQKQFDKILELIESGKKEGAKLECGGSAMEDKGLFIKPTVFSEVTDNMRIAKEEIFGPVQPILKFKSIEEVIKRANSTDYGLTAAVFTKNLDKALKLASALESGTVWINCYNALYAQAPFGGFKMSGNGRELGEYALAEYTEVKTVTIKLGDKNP
Experimental: Human ALDH1A1, ALDH1A3, and ALDH3A1 were cloned and recombinantly expressed from the pET-30 Xa/LIC vector. Protein purification was achieved by affinity chromatography on a nickel-charged chelating Sepharose Fast Flow 5-mL column (His Trap column, Cytiva), which specifically binds the protein due to its N-terminal (His)6 tag, using an ÄKTA FPLC system (Cytiva), as previously described.[55] Enzymes including the His tag were stored at −80 °C in 20 mM Tris/HCl and 0.5 M NaCl, pH 8.0, until use. Reaction buffers were as follows: ALDH1A1 was assayed in 50 mM HEPES, 0.5 mM EDTA, and 0.5 mM DTT, pH 8.0; […] Activity under standard conditions was measured fluorimetrically at 25 °C using a Cary Eclipse (Varian) fluorimeter to follow the purification procedure and to check the enzyme concentration before each kinetic experiment. […] In order to determine the IC50 values, reaction rates were determined at various concentrations of inhibitor at a fixed concentration of substrate. […] Values are expressed as the mean ± SE. […] The data of enzymatic activities at different inhibitor concentrations were fitted to the Michaelis–Menten equation to determine the values of Km and Vmax. Next, results were fitted to the equations for competitive, given by [drawing 3]; noncompetitive, given by [drawing 4]; uncompetitive, given by [drawing 5]; and mixed, given by [drawing 6] .[56] The type of inhibition was selected based on the lowest error value. Parameters were expressed as the mean ± SE.

[5] = Homo sapiens, PC-3, 96 h exposure
[6] = Homo sapiens, DU-145, 96 h exposure

Molecule	IC50 [1, 5]	IC50 ([2]; Homo sapiens, LNCaP)	IC50 [3, 6]	further results
4-(Dipropylamino)-2-methoxybenzaldehyde [Compound 38]				IC50 ([1]; 96 h exposure): 75 ± 10 µM; IC50 [2]: 50 ± 3 µM; IC50 ([3]; 96 h exposure): 71 ± 11 µM
4-(Dipropylamino)-3-methoxybenzaldehyde [Compound 17]				IC50 ([1]; 96 h exposure): 106 ± 25 µM; IC50 [2]: 61 ± 18 µM; IC50 ([3]; 96 h exposure): 103 ± 4 µM
O=Cc1ccc(-n2ccnc2)cc1 [Compound 6, 4-(1H-Imidazole-1-yl)benzaldehyde]	172 ± 30 µM	137 ± 14 µM	133 ± 11 µM	
O=Cc1ccc(N2CCCCC2)c(Cl)c1 [Compound 8, 3-Chloro-4-(piperidin-1-yl)benzaldehyde]	130 ± 9 µM	37 ± 1.4 µM	110 ± 3 µM	
Cc1cc(C=O)ccc1N1CCCCC1 [Compound 15, 3-Methyl-4-(piperidin-1-yl)benzaldehyde]	123 ± 29 µM	61 ± 14 µM	106 ± 13 µM	IC50 ([4]; mean ± SE): 0.3 ± 0.07 µM; type of inhibition ALDH1A3 ([4]; hexanal as substrate): competitive; Ki ([4]; hexanal as substrate, fit to competitive inhibition equation, mean ± SE): < 1 µM
CN1CCN(c2ccc(C=O)cc2Br)CC1 [Compound 21, 3-Bromo-4-(4-methylpiperazin-1-yl)benzaldehyde]	> 200 µM	179 ± 14 µM	187 ± 14 µM	
O=Cc1ccc(N2CCOCC2)c(Br)c1 [Compound 22, 3-Bromo-4-morpholinobenzaldehyde]	196 ± 4 µM	82 ± 10 µM	155 ± 32 µM	
O=Cc1ccc(N2CCCCC2)c(Br)c1 [Compound 23, 3-Bromo-4-(piperidin-1-yl)benzaldehyde]	84 ± 6 µM	46 ± 10 µM	84 ± 12 µM	
O=Cc1ccc(N2CCCC2)c([N+](=O)[O-])c1 [Compound 34, 3-Nitro-4-(pyrrolidin-1-yl)benzaldehyde]				IC50 ([4]; mean ± SE): 0.27 ± 0.03 µM
